Laboratory results: patent publication US8067611B2, “Substituted 1-(thiazolyl)-and 1-(isothiazolyl)pyrazol-4-ylacetic acids, processes for their preparation and their use as herbicides and plant growth regulators” (Bayer CropScience AG, priority 2008, dated 2011)

What was measured:
harmful plants = test: Pre-emergence herbicidal effect, greenhouse pot test; type: in vivo; conditions: application rate of 1 kg or less of active substance per hectare, scored after about 3 weeks
Text: Seeds of monocotyledonous or dicotyledonous weed plants or crop plants are planted in wood-fiber pots in sandy loam and covered with soil. The compounds (I) according to the invention, formulated in the form of wettable powders (WP), are then applied as aqueous suspension or emulsion at a water application rate of 600 I/ha (converted) with the addition of 0.2% of wetting agent to the surface of the covering soil.
Following the treatment, the pots are placed in a greenhouse and kept under good growth conditions for the test plants. After about 3 weeks, the effect of the preparations is scored visually in comparison with untreated controls (herbicidal effect in percent (%): 100% effect=plants have died, 0% effect=as control plants).

[1] = tested on: weed-grasses and broad-leaved weeds; test: Post-emergence herbicidal effect, greenhouse pot test; type: in vivo; conditions: application rate of 1 kg and less of active substance per hectare, scored after 3 weeks
Procedure: Seeds of monocotyledonous or dicotyledonous weed plants or crop plants are planted in wood-fiber pots in sandy loam, covered with soil and grown in a greenhouse under good growth conditions. 2 to 3 weeks after sowing, the test plants are treated in the one-leaf stage. The compounds according to the invention, formulated in the form of wettable powders (WP), are then sprayed onto the green plant parts as aqueous suspension or emulsion at a water application rate of 600 I/ha (converted) with the addition of 0.2% of wetting agent. After 3 weeks' standing time of the test plants in the greenhouse under optimum growth conditions, the effect of the preparations is scored visually in comparison with untreated controls (herbicidal effect in percent (%): 100% effect=plants have died, 0% effect=as control plants).

Row | Structure (SMILES) | herbicidal pre-emergence activity against a number of harmful plants (harmful plants) | post-emergence activity against a broad spectrum of weed-grasses and broad-leaved weeds [1]
1 | COC(=O)Cc1c(C)nn(-c2cncs2)c1-c1ccc(Br)cn1 [Compound 8-121] | good herbicidal pre-emergence activity | good post-emergence activity
2 | COC(=O)Cc1c(C)nn(-c2cncs2)c1-c1ccc(F)cc1 [Compound 8-133] | good herbicidal pre-emergence activity | good post-emergence activity
3 | COC(=O)Cc1c(C)nn(-c2cncs2)c1-c1ccc(C)cc1 [Compound 8-16] | good herbicidal pre-emergence activity | good post-emergence activity
4 | COC(=O)Cc1c(C)nn(-c2cnsc2)c1-c1ccc(F)cc1 [Compound 5-131] | good herbicidal pre-emergence activity | good post-emergence activity
5 | COC(=O)Cc1c(C)nn(-c2cncs2)c1-c1cc2ccccc2cn1 [Compound 8-240] | good herbicidal pre-emergence activity | good post-emergence activity
6 | COC(=O)Cc1c(C)nn(-c2cncs2)c1-c1nc2ccccc2s1 [Compound 8-219] | good herbicidal pre-emergence activity | good post-emergence activity
7 | COC(=O)Cc1c(C)nn(-c2cnsc2)c1-c1ncc(Br)cn1 [Compound 5-227] | good herbicidal pre-emergence activity | good post-emergence activity
8 | CCOC(=O)Cc1c(C)nn(-c2cncs2)c1-c1ccc(Cl)cc1 [Compound 9-4] | good herbicidal pre-emergence activity | good post-emergence activity
9 | COC(=O)Cc1c(C)nn(-c2cncs2)c1-c1ccco1 [Compound 8-4] | good herbicidal pre-emergence activity | good post-emergence activity
10 | COC(=O)Cc1c(C)nn(-c2cncs2)c1-c1ccc(C(F)(F)F)cc1 [Compound 8-32] | good herbicidal pre-emergence activity | good post-emergence activity
11 | Cc1nn(-c2ccns2)c(-c2ccc(Br)s2)c1CC(=O)O [Compound 1-67] | good herbicidal pre-emergence activity | good post-emergence activity
12 | Cc1nn(-c2cncs2)c(-c2ccc(Cl)cc2)c1CC(=O)O [Compound 7-29, [5-(4-Chlorophenyl)-3-methyl-1-(1,3-thiazol-5-yl)-1H-pyrazol-4-yl]acetic acid] | good herbicidal pre-emergence activity | good post-emergence activity
13 | COC(=O)Cc1c(C)nn(-c2cncs2)c1-c1ccccc1 [Compound 8-2] | good herbicidal pre-emergence activity | good post-emergence activity
14 | CCOC(=O)c1ncsc1-n1nc(C)c(CC(=O)OC)c1-c1ccccn1 [Compound 8-241, Ethyl 5-[4-(2-methoxy-2-oxoethyl)-3-methyl-5-(pyridin-2-yl)-1H-pyrazol-1-yl]-1,3-thiazole-4-carboxylate] | good herbicidal pre-emergence activity | good post-emergence activity
15 | COC(=O)Cc1c(C)nn(-c2cncs2)c1-c1ccc(Cl)cn1 [Compound 8-118] | good herbicidal pre-emergence activity | good post-emergence activity
16 | COC(=O)Cc1c(C)nn(-c2ccns2)c1-c1ccc(Br)cn1 [Compound 2-120] | good herbicidal pre-emergence activity | good post-emergence activity
17 | Cc1nn(-c2cncs2)c(-c2ccc(Cl)cc2)c1CC(=O)OCC1CC1 [Compound 9-122] | good herbicidal pre-emergence activity | good post-emergence activity

Row | Structure (SMILES) | herbicidal pre-emergence activity against a number of harmful plants (harmful plants) | post-emergence activity against a broad spectrum of weed-grasses and broad-leaved weeds [1]
18 | COC(=O)Cc1c(C)nn(-c2cnsc2)c1-c1ccc(Cl)cc1 [Compound 5-28] | good herbicidal pre-emergence activity | good post-emergence activity
19 | Cc1nn(-c2ccns2)c(-c2ccc(Br)cn2)c1CC(=O)O [Compound 1-119] | good herbicidal pre-emergence activity | good post-emergence activity
20 | COC(=O)Cc1c(C)nn(-c2cnsc2)c1-c1ccc(Br)cn1 [Compound 5-119] | good herbicidal pre-emergence activity | good post-emergence activity
21 | COC(=O)Cc1c(C)nn(-c2cncs2)c1-c1ncc(Br)cn1 [Compound 8-230] | good herbicidal pre-emergence activity | good post-emergence activity
22 | COC(=O)Cc1c(C)nn(-c2cc(C)ns2)c1-c1ccc(Cl)cc1 [Compound 2-147, Methyl[5-(4-chlorophenyl)-3-methyl-1-(3-methylisothiazol-5-yl)-1H-pyrazol-4-yl]acetate] | good herbicidal pre-emergence activity | good post-emergence activity
23 | COC(=O)Cc1c(C)nn(-c2cnsc2)c1-c1ccccc1 [Compound 5-2] | good herbicidal pre-emergence activity | good post-emergence activity
24 | COC(=O)Cc1c(C)nn(-c2cnsc2)c1-c1ccc(Cl)cn1 [Compound 5-116] | good herbicidal pre-emergence activity | good post-emergence activity
25 | COC(=O)Cc1c(C)nn(-c2cncs2)c1-c1sccc1C [Compound 8-64] | good herbicidal pre-emergence activity | good post-emergence activity
26 | COC(=O)Cc1c(C)nn(-c2ccns2)c1-c1ccccn1 [Compound 2-116] | good herbicidal pre-emergence activity | good post-emergence activity
27 | COC(=O)Cc1c(C)nn(-c2cnsc2)c1-c1ccc2ccccc2n1 [Compound 5-239] | good herbicidal pre-emergence activity | good post-emergence activity
28 | COC(=O)Cc1c(C)nn(-c2cncs2)c1-c1ccccn1 [Compound 8-117] | good herbicidal pre-emergence activity | good post-emergence activity
29 | COC(=O)Cc1c(C)nn(-c2cncs2)c1-c1cc(C)c(Cl)cn1 [Compound 8-294] | good herbicidal pre-emergence activity | good post-emergence activity
30 | COC(=O)Cc1c(C)nn(-c2ccns2)c1-c1ccc(Cl)cc1 [Compound 2-28] | good herbicidal pre-emergence activity | good post-emergence activity
31 | COC(=O)Cc1c(C)nn(-c2cncs2)c1-c1ccc2ccccc2n1 [Compound 8-239] | good herbicidal pre-emergence activity | good post-emergence activity
32 | COC(=O)Cc1c(C)nn(-c2cnsc2)c1-c1ccccn1 [Compound 5-115] | good herbicidal pre-emergence activity | good post-emergence activity
33 | COC(=O)Cc1c(C)nn(-c2cncs2)c1-c1ccc(Br)s1 [Compound 8-69] | good herbicidal pre-emergence activity | good post-emergence activity
34 | COC(=O)Cc1c(C)nn(-c2cncs2)c1-c1ccc(Cl)cc1 [Compound 8-28, methyl[5-(4-chlorophenyl)-3-methyl-1-(1,3-thiazol-5-yl)-1H-pyrazol-4-yl]acetate] | good herbicidal pre-emergence activity | good post-emergence activity
